In PMC6830309, “Characterizing CDK8/19 Inhibitors through a NFκB-Dependent Cell-Based Assay” (Cells, 2019):
Like-named read-outs stand apart in the source and are kept apart here.

Legend:
[1] = tested on: TNFα-induced NFκB reporter activity in CDK8/19 dKO 293 cells; test: NFκB-dependent luciferase reporter cell-based assay in CDK8/19 dKO 293 cells; parameters: species or system human; details: for effect on reporter induction in dKO cells: 293-dKO-NFκB-Luc cells; for IC50: Homo sapiens, read-out: NFkB activity Assay IC50
Description: (§1) The lentiviral construct pHAGE-NFkB-TA-LUC-UBC-dTomato was generated by Darrell Kotton […] Parental WT 293 cells or CDK8/19 dKO 293 cells were transduced with the lentivirus and dTomato-positive cells were sorted out using FACS Aria III. Single-cell clones were expanded and tested for luciferase reporter activities under TNFα- and/or senexin B-treated and untreated conditions with Bright-Glo Luciferase Assay System (Promega, Madison, WI, USA).
(§2) On day 1, cells were seeded in polyethyleneimine-coated 96-well plates at the density of 5 × 10^4 cells per well. […] Chemiluminescence intensity of each well was measured with ChemiDoc Touch™ (Bio-Rad) and quantified using ImageLab software (Bio-Rad). The raw data were then further processed with GraphPad Prism 7.0 (GraphPad Software, San Diego, CA, USA) for curve-fitting and IC50 calculation.

[2] = tested on: alkaline phosphatase (ALPase) activity in ST2 cells; parameters: method as in PMID 23453217; details: concentration enhancing ALPase activity to 200% of the control; cited from earlier work
[3] = tested on: TNFα-induced NFκB reporter activity in WT 293 cells (CDK8/19 inhibition); test: NFκB-dependent luciferase reporter cell-based assay in WT 293 cells; parameters: species or system human; details: for extent of inhibition of NFκB-dependent promoter activation: WT cells
Description: as §1, §2

[4] = tested on: IL8 mRNA expression; test: QPCR of TNFα-induced IL8 mRNA in 293 cells and CDK8/19 knockout derivatives; assay type: cell-based, human; details: dKO 293 cells; 1 μM senexin B
Description: (§3) Cells were seeded in 12-well plates at density of 3 × 10^5 cells per well in regular culture media 24 h before treatment. Cells were first pre-treated with 1 μM senexin B or solvent control DMSO (0.1%) for 1 h and then treated with or without 10 ng/mL TNF-α for 2 h. Total RNA was extracted using RNAeasy Mini Kit (Qiagen, Germantown, MD, USA) and 1 µg of total RNA was used to generate cDNA using iScript cDNA synthesis kit (Bio-Rad). Gene expression was quantified using iTaq Universal SYBR green super mix on the CFX384 Real time system (Bio-Rad). The primers used for real-time PCR were: CXCL1-F, […]; CXCL1-R, […]; IL8-F, […]; IL8-R, […]; RPL13A-F, […] and RPL13A-R, […].

[5] = tested on: CXCL1 mRNA expression; test: QPCR of TNFα-induced CXCL1 mRNA in 293 cells and CDK8/19 knockout derivatives; assay type: cell-based, human; details: dKO 293 cells; 1 μM senexin B
Description: as §3

[6] = HEK293, 293-dKO-NFKB-LUC#2, 10 ng/mL TNFα 3 h
[7] = 293-WT-NFKB-LUC#8, 10 ng/mL TNFα 3 h, read-out: NFkB activity Assay IC50
[8] = Homo sapiens, HEK293, 3 h, 293-WT-NFKB-LUC#8, 10 ng/mL TNFα 3 h, read-out: NFkB activity Assay IC50

| Compound | IC50 [1, 6] | ALP activity Assay EC200 [2] | IC50 [3, 8] | extent of inhibition of NFκB-dependent promoter activation ([1]; dKO cells, 10 ng/mL TNFα 3 h) | extent of inhibition of NFκB-dependent promoter activation ([3]; 10 ng/mL TNFα 3 h) | also measured |
| --- | --- | --- | --- | --- | --- | --- |
| CN(C)C(=O)Cc1ccc(N2CCCN(c3ccnc4sc(C(N)=O)c(N)c34)CC2)cc1 [15w] | > 1000 nM | 6.6 nM | 4.1 nM | – | – | effect on reporter induction in dKO cells ([1]; 10 ng/mL TNFα 3 h): none of them showed any activity; IC50 [3, 7]: 4 nM |
| CC(=O)c1c(C)c2cnc(Nc3ccc(N4CCNCC4)cn3)nc2n(C2CCCC2)c1=O [Palbociclib, palbociclib] | > 2000 nM | – | > 2000 nM | only weak inhibitory effects at high concentrations | only weak inhibitory effects at high concentrations | – |
| Cc1ccc(S(=O)(=O)N[C@@H](Cc2ccccc2)C(=O)CCl)cc1 [TPCK, tosyl-L-phenylalanyl-chloromethane ketone] | 12000 nM | – | 13000 nM | complete suppression | complete suppression | – |
| CN(C)C(=O)c1ccc(N2CCCN(c3ccnc4sc(C(N)=O)c(N)c34)CC2)cc1 [15u] | > 1000 nM | 31.9 nM | 10.3 nM | – | – | effect on reporter induction in dKO cells ([1]; 10 ng/mL TNFα 3 h): none of them showed any activity; IC50 [3, 7]: 10 nM |
| CN1CCN(C(=O)c2ccc3cc(CCNc4ncnc5ccc(C#N)cc45)ccc3c2)CC1 [senexin B] | > 1000 nM | – | 114 nM | – | – | inhibition of TNFα-induced luciferase induction ([1]; dKO cells, 1 μM senexin B, 10 ng/mL TNFα): not in dKO cells; inhibitory effect on TNFα induction of IL8 [4]: completely abolished; inhibitory effect on TNFα induction of CXCL1 [5]: completely abolished; IC50 ([3]; Homo sapiens, HEK293, 3 h, clone WT-#1, 10 ng/mL TNFα 3 h, read-out: IC50 for inhibition of TNFα-induced luciferase expression): 95 nM; IC50 ([3]; Homo sapiens, HEK293, 3 h, clone WT-#2, 10 ng/mL TNFα 3 h, read-out: IC50 for inhibition of TNFα-induced luciferase expression): 135 nM; IC50 ([3]; Homo sapiens, HEK293, 3 h, clone WT-#9, 10 ng/mL TNFα 3 h, read-out: IC50 for inhibition of TNFα-induced luciferase expression): 187 nM; inhibition of TNFα-induced luciferase expression ([3]; all the WT clones, 1 μM senexin B): 70–80% |
| CNC(=O)c1ccc(N2CCCN(c3ccnc4sc(C(N)=O)c(N)c34)CC2)cc1 [15v] | – | 54.2 nM | 23.1 nM | – | – | – |
| COc1ccc(N2CCCN(c3ccnc4sc(C(N)=O)c(N)c34)CC2)cc1 [15q] | – | 88.1 nM | 37.8 nM | – | – | – |
| NC(=O)c1sc2nccc(N3CCCN(c4ccccc4)CC3)c2c1N [15k] | – | – | – | – | – | effect on reporter induction in dKO cells ([1]; 10 ng/mL TNFα 3 h): none of them showed any activity |
| Cc1ccc(N2CCCN(c3ccnc4sc(C(N)=O)c(N)c34)CC2)cc1 [15n] | – | 115.4 nM | 43.1 nM | – | – | – |
| CCc1cnn2c(NCc3ccc[n+]([O-])c3)cc(N3CCCC[C@H]3CCO)nc12 [Dinaciclib] | – | – | – | completely inhibited | completely inhibited | – |
| CN1CC[C@H](c2c(O)cc(O)c3c(=O)cc(-c4ccccc4Cl)oc23)[C@H](O)C1 [Flavopiridol] | 26 nM | – | 34 nM | completely inhibited | completely inhibited | – |
| CN(C)C1CC23CCC4(O2)C(=CCC2(C)C(c5ccc6ccncc6c5)=CCC24)C=C3C(O)C1O (centres unmarked) [dCA, didehydro-cortistatin A] | – | – | – | – | – | effect on reporter induction in dKO cells ([1]; 10 ng/mL TNFα 3 h): no effect; IC50 ([1]; HEK293, 3 h): > 1000 nM; IC50 ([3]; Homo sapiens, HEK293, 3 h, read-out: NFkB activity Assay IC50): 1.3 nM; maximal (plateau) inhibition of TNFα-induced reporter induction ([3]; WT reporter cells, 10 ng/mL TNFα 3 h): ~ 80% |
| CC(C)C[C@H](NC(=O)[C@H](Cc1ccccc1)NC(=O)c1cnccn1)B(O)O [Bortezomib, bortezomib] | 173 nM | – | 311 nM | – | – | – |
| CN(C)C/C=C/C(=O)Nc1ccc(C(=O)Nc2cccc(Nc3ncc(Cl)c(-c4c[nH]c5ccccc45)n3)c2)cc1 [THZ1] | 352 nM | – | 220 nM | completely inhibited | completely inhibited | – |
